Measurements published in US20240115512A1, “PROCESS FOR PREPARING NANOFORMULATION FOR DELIVERY OF BERBAMINE” (priority 2021, published 2024).
≈ marks a conversion by molar mass, not a printed value.

Legend:
Experiment in all cases: MIC by serial dilution method
Format in all cases: cell-based
[1] = system: Acinetobacter baumannii (ATCC 19606); settings: ATCC19606
Protocol: (§1) Berbamine was tested for a panel of bacterial strains including Pseudomonas aeruginosa (ATCC 27853), Acinetobacter baumannii (ATCC 19606), Staphylococcus aureus (ATCC 29213) and clinical isolates of Klebsiella pneumoniae, Staphylococcus epidermidis, Staphylococcus hemolyticus and Burkholderia cepacia complex using serial dilution method. Ceftazidime was used as the standard antibiotic for validating the protocol.

[2] = system: Staphylococcus aureus (ATCC 29213); settings: ATCC29213
Protocol: as §1

[3] = system: Klebsiella pneumoniae (clinical isolate)
Protocol: as §1

[4] = system: Staphylococcus epidermidis (clinical isolate)
Protocol: as §1

[5] = system: Staphylococcus hemolyticus (clinical isolate)
Protocol: as §1

## COc1cc2c3cc1Oc1c(OC)c(OC)cc4c1[C@@H](Cc1ccc(O)c(c1)Oc1ccc(cc1)C[C@@H]3N(C)CC2)N(C)CC4 [berbamine]
[1]
  MIC: 256 µg/mL (≈ 421 µM)
[2]
  MIC: 256 µg/mL (≈ 421 µM)
[3]
  MIC: > 4100 µg/mL
[4]
  MIC: 128 µg/mL (≈ 210 µM)
[5]
  MIC: 128 µg/mL (≈ 210 µM)
